Literature values in patent publication US12263173B2, “PLK1 inhibitor in combination with anti-angiogenics for treating metastatic cancer” (CARDIFF ONCOLOGY, INC., priority 2022, dated 2025).
Read-outs that look alike come from different tables or passages of the source. Blank lines part the entries; values can stand above or below the compound they belong to.

What was measured:
[1] = test system: patients with and without prior bevacizumab treatment; conditions: second line
[2] = test system: patients with advanced/metastatic solid tumors; conditions: reversible
PLK1 = PLK1 (Homo sapiens, UniProt P53350)
Chain of PLK1 (P53350 whole entry): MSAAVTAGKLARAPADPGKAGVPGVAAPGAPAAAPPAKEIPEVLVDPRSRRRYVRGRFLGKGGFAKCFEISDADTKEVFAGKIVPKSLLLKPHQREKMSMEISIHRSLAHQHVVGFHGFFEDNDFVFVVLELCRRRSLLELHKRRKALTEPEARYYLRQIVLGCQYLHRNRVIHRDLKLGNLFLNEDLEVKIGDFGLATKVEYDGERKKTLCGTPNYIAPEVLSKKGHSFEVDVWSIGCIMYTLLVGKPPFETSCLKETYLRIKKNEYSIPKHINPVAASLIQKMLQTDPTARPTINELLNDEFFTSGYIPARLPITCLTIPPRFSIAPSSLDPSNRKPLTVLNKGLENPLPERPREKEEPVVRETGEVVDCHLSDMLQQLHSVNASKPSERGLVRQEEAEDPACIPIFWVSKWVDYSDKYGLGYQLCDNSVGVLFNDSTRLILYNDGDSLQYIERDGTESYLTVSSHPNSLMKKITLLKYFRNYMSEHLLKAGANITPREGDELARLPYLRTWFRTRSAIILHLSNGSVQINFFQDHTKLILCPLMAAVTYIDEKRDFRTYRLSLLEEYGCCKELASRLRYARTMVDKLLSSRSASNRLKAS

[3] = test system: HT29 human colon adenocarcinoma xenografts; conditions: in combination with irinotecan
[4] = test system: disseminated model of AML
[5] = test system: patients with AML who were treatment naïve yet unsuitable for induction therapy; conditions: administered intravenously in combination with LDAC
patients with AML = conditions: in combination with LDAC
[6] = bev naïve (without prior bevacizumab)

Compound: bev: anti-angiogenics (angiogenesis inhibitor), Avastin
mOS [1, 6]: 13.9 months
mPFS [1, 6]: 6.9 months
mOS ([1]; prior bev): 12.5 months
mPFS ([1]; prior bev): 6.7 months

specificity for PLK1 (PLK1; among a panel of 296 kinases, including other PLK members): high specificity
potency and specificity for the PLK1 isozyme versus volasertib (PLK1; compared with volasertib (BI6727)): higher degree of potency and specificity
Compound: CN1CCN(c2ccc(OC(F)(F)F)c(Nc3ncc4c(n3)-c3c(c(C(N)=O)nn3CCO)CC4)c2)CC1 [onvansertib, 1-(2-hydroxyethyl)-8-{[5-(4-methylpiperazin-1-yl)-2-(trifluoromethoxy)phenyl]amino}-4,5-dihydro-1H-pyrazolo[4,3-h]quinazoline-3-carboxamide]
recovery of hematologic toxicities [2]: ≤ 3 weeks
inhibition of cell proliferation (AML cell lines): nanomolar concentrations
xenograft tumor growth (xenograft models; well tolerated doses in mice after oral administration): inhibits xenograft tumor growth
tumor growth (xenograft models; xenograft models of AML): inhibited
tumor regression compared to each agent alone [3]: enhanced tumor regression
survival of animals ([4]; in combination therapy with cytarabine): prolonged survival
effect on cytarabine antitumor activity ([4]; in combination with cytarabine): significantly increased

Compound: CC[C@@H]1C(=O)N(C)c2cnc(Nc3ccc(C(=O)N[C@H]4CC[C@H](N5CCN(CC6CC6)CC5)CC4)cc3OC)nc2N1C(C)C [volasertib]
OS compared with LDAC alone [5]: significant increase in OS
benefit of the combination (patients with AML): no benefit
